The target of this test is T1, human V1a receptor (Homo sapiens, UniProt P37288).
T1 construct: expressed in transfected cells; host or cells: HEK293 cells, transiently transfected; cell membranes
T1 sequence (P37288 whole entry): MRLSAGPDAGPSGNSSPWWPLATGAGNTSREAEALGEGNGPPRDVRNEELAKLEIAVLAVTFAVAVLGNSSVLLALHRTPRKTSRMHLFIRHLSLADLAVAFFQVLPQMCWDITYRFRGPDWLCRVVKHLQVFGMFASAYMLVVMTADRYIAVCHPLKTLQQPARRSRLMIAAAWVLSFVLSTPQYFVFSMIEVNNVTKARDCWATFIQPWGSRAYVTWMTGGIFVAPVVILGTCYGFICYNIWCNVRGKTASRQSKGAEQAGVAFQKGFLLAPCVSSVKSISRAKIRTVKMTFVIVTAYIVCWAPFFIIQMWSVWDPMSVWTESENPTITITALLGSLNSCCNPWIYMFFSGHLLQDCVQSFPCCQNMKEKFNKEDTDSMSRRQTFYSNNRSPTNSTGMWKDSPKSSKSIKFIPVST
The test is described as follows: human V1a receptor binding studies (3H-Vasopressin SPA, HEK293 cell membranes). To be noted: competition with 3H-Vasopressin on membranes of HEK293 cells transiently transfected with human V1a receptor; Ki by Cheng-Prussoff equation; read-out: pKi (hV1a) (converted). The protocol:
The human V1a receptor was cloned by RT-PCR from total human liver RNA. The coding sequence was subcloned in an expression vector after sequencing to confirm the identity of the amplified sequence. […] Cell membranes were prepared from HEK293 cells transiently transfected with the expression vector and grown in 20 liter fermenters with the following protocol.
50 g of cells are re-suspended in 30 ml freshly prepared ice cold Lysis buffer (50 mM HEPES, 1 mM EDTA, 10 mM MgCl2 adjusted to pH= 7.4 + complete cocktail of protease inhibitor (Roche Diagnostics)). Homogenized with Polytron for Imin and sonicated on ice for 2x 2 minutes at 80% intensity (Vibracell sonicator). The preparation is centrifuged 20 min at 500 g at 4° C., the pellet is discarded and the supernatant centrifuged 1 hour at 43 ′000g at 4° C. (19 ′000rpm). The pellet is re-suspended in 12.5 ml Lysis buffer+12.5 ml Sucrose 20% and homogenized using a Polytron for 1-2 min. The protein concentration is determined by the Bradford method and aliquots are stored at -80° C. until use. For binding studies 60 mg Yttrium silicate SPA beads (Amersham) are mixed with an aliquot of membrane in binding buffer (50 mM Tris, 120 mM NaCl, 5 mM KCl, 2 mM CaCl2, 10 mM MgCl2) for 15 minutes with mixing. 50 µl of bead/membrane mixture is then added to each well of a 96 well plate, followed by 50 µl of 4 nM 3H-Vasopressin (American Radiolabeled Chemicals). For total binding measurement 100 µl of binding buffer are added to the respective wells, for non-specific binding 100 µl of 8.4 mM cold vasopressin and for compound testing 100 µl of a serial dilution of each compound in 2% DMSO. The plate is incubated 1 h at room temperature, centrifuged 1 min at 1000 g and counted on a Packard Top-Count. Non-specific binding counts are subtracted from each well and data is normalized to the maximum specific binding set at 100%. To calculate an IC50 the curve is fitted using a non-linear regression model (XLfit) and the Ki is calculated using the Cheng-Prussoff equation.
For `Cc1nnc([C@H]2CC[C@H](Oc3ccccn3)CC2)n1-c1ccc(Cl)cn1` [Example 23], the Ki was 17 nM. Take `Cc1cc(Cl)ccc1-n1c(C)nnc1[C@H]1CC[C@H](Oc2ccccn2)CC1` [Example 13]: the Ki is 0.269 nM. In the case of `CN(C)CCOc1nnc([C@H]2CC[C@H](Oc3ccccn3)CC2)n1-c1ccc(Cl)cc1` [Example 51], the Ki is 32.4 nM. Under `COCc1nnc([C@H]2CC[C@H](Oc3ccc(C)nc3)CC2)n1-c1ccc(Cl)cc1` [Example 67, trans[4-[4-(4-Chlorophenyl)(methoxymethyl)-1,2,4-triazol-3-yl]cyclohexyl]oxy-2-methylpyridine] stands 0.661 nM; under `Cc1ccc(-n2c(C(F)F)nnc2[C@H]2CC[C@H](Oc3ccccn3)CC2)cc1` [Example 31, trans((4-(5-(Difluoromethyl)-4-(p-tolyl)-4H-1,2,4-triazol-3-yl)cyclohexyl)oxy)pyridine], 3.39 nM; under `Cc1nnc([C@H]2CC[C@H](Oc3ccccn3)CC2)n1-c1ccc(F)cc1` [Example 4, trans((4-(4-(4-Fluorophenyl)-5-methyl-4H-1,2,4-triazol-3-yl)cyclohexyl)oxy)pyridine], 2.04 nM. The result for `COc1cc(Cl)ccc1-n1c(C)nnc1[C@H]1CC[C@@H](Oc2ccccc2)CC1` [Example 2, cis(4-Chloro-2-methoxy-phenyl)-3-methyl-5-(4-phenoxy-cyclohexyl)-4H-[1,2,4]triazole] reads 7.59 nM; that for `CN(C)CCc1nnc([C@H]2CC[C@H](Oc3ccccn3)CC2)n1-c1ccc(Cl)cc1` [Example 47], 33.1 nM. For `COCc1nnc([C@H]2CC[C@H](Oc3ccccn3)CC2)n1-c1ccc(Cl)cc1` [Example 35, trans(4-(4-(4-Chlorophenyl)-5-(methoxymethyl)-4H-1,2,4-triazol-3-yl)cyclohexyloxy)pyridine], the Ki is 0.631 nM. The result for `Cc1nnc([C@H]2CC[C@H](Oc3ccccn3)CC2)n1-c1ccc(C#N)cc1` [Example 8, trans(3-Methyl-5-((1r,4r)(pyridin-2-yloxy)cyclohexyl)-4H-1,2,4-triazolyl)benzonitrile] reads 38.9 nM; that for `Cc1ccc(-n2c(C)nnc2[C@H]2CC[C@H](Oc3ccc(C)cn3)CC2)cc1` [Example 57, transMethyl-2-[4-[5-methyl-4-(4-methylphenyl)-1,2,4-triazol-3-yl]cyclohexyl] oxypyridine], 0.447 nM. Under `Cc1nnc([C@H]2CC[C@H](Oc3ccccn3)CC2)n1-c1ccc(F)c(F)c1` [Example 21, trans((4-(4-(3,4-Difluorophenyl)-5-methyl-4H-1,2,4-triazol-3-yl)cyclohexyl)oxy)pyridine] stands 7.08 nM; under `Cc1ccc(-n2c(C)nnc2[C@H]2CC[C@H](Oc3ccc(C)nc3)CC2)cc1` [Example 65, transMethyl-5-[4-[5-methyl-4-(4-methylphenyl)-1,2,4-triazol-3-yl]cyclohexyl]oxypyridine], 3.39 nM; under `CS(=O)(=O)c1nnc([C@H]2CC[C@H](Oc3ccccn3)CC2)n1-c1ccc(Cl)cc1` [Example 48, trans((4-(4-(4-Chlorophenyl)-5-(methylsulfonyl)-4H-1,2,4-triazol-3-yl)cyclohexyl)oxy)pyridine], 20 nM. Under `CSCCc1nnc([C@H]2CC[C@H](Oc3ccccn3)CC2)n1-c1ccc(Cl)cc1` [Example 46, trans((4-(4-(4-Chlorophenyl)-5-(2-(methylthio)ethyl)-4H-1,2,4-triazol-3-yl)cyclohexyl)oxy)pyridine] stands 0.575 nM; under `Cc1nnc([C@H]2CC[C@H](Oc3ccc(C(F)F)cn3)CC2)n1-c1ccc(Cl)cc1` [Example 60, trans((4-(4-(4-Chlorophenyl)-5-methyl-4H-1,2,4-triazol-3-yl)cyclohexyl)oxy)-5-(difluoromethyl)pyridine], 2.29 nM. Regarding `Clc1ccc(-n2cnnc2[C@H]2CC[C@H](Oc3ccccn3)CC2)cc1` [Example 52, trans((4-(4-(4-Chlorophenyl)-4H-1,2,4-triazol-3-yl)cyclohexyl)oxy)pyridine], the Ki was 2.24 nM. `Cc1ccc(-n2cnnc2[C@H]2CC[C@H](Oc3ccccn3)CC2)c(C)c1` [Example 54, trans((4-(4-(2,4-Dimethylphenyl)-4H-1,2,4-triazol-3-yl)cyclohexyl)oxy)pyridine]: the Ki is 2.19 nM.

For the compound `Cc1nnc([C@H]2CC[C@H](Oc3ccccn3)CC2)n1-c1ccc(C(F)F)cc1` [Example 7, trans((4-(4-(4-(Difluoromethyl)phenyl)-5-methyl-4H-1,2,4-triazol-3-yl)cyclohexyl)oxy)pyridine], the Ki is 18.6 nM. For the compound `C[S@+]([O-])Cc1nnc([C@H]2CC[C@H](Oc3ccccn3)CC2)n1-c1ccc(Cl)cc1` (stereo in doubt) [Example 38, trans-(-)-2-((4-(4-(4-Chlorophenyl)-5-((methylsulfinyl)methyl)-4H-1,2,4-triazol-3-yl)cyclohexyl)oxy)pyridine], the Ki is 91.2 nM.

On to `COCc1nnc([C@H]2CC[C@H](Oc3ccc(C)nc3)CC2)n1-c1ccc(C)cc1` [Example 66, trans[4-[5-(Methoxymethyl)-4-(4-methylphenyl)-1,2,4-triazol-3-yl]cyclohexyl]oxy-2-methylpyridine], for which the Ki is 3.47 nM. Under `CN(C)Cc1nnc([C@H]2CC[C@H](Oc3ccccn3)CC2)n1-c1ccc(Cl)cc1` [Example 43, trans(4-(4-Chlorophenyl)-5-(4-(pyridin-2-yloxy)cyclohexyl)-4H-1,2,4-triazol-3-yl)-N,N-dimethylmethanamine] stands 2.14 nM; under `CSc1cc(Cl)ccc1-n1c(C)nnc1[C@H]1CC[C@H](Oc2ccccn2)CC1` [Example 14, trans[4-[4-(4-Chloromethylsulfanylphenyl)-5-methyl-1,2,4-triazol-3-yl]cyclohexyl]oxypyridine], 1.58 nM. The result for `COCc1nnc([C@H]2CC[C@H](Oc3cnccn3)CC2)n1-c1ccc(C)cc1` [Example 68, trans[4-[5-(Methoxymethyl)-4-(4-methylphenyl)-1,2,4-triazol-3-yl]cyclohexyl]oxypyrazine] reads 8.13 nM; that for `Cc1nnc([C@H]2CC[C@H](Oc3ccccn3)CC2)n1-c1ccc(Br)cc1` [Example 9, trans((4-(4-(4-Bromophenyl)-5-methyl-4H-1,2,4-triazol-3-yl)cyclohexyl)oxy)pyridine], 0.195 nM; that for `Cc1cc(Cl)ccc1-n1cnnc1[C@H]1CC[C@H](Oc2ccccn2)CC1` [Example 53], 0.891 nM. `Cc1cnc(O[C@H]2CC[C@H](c3nnc(C)n3-c3ccc(Cl)cc3)CC2)cn1` [Example 70, trans[4-[4-(4-Chlorophenyl)-5-methyl-1,2,4-triazol-3-yl]cyclohexyl]oxy-5-methylpyrazine]: the Ki was 5.01 nM. The result for `Cc1nnc([C@H]2CC[C@H](Oc3ccccn3)CC2)n1-c1ccc(Cl)cc1F` [Example 12, trans((4-(4-(4-Chlorofluorophenyl)-5-methyl-4H-1,2,4-triazol-3-yl)cyclohexyl)oxy)pyridine] reads 0.759 nM; that for `Cc1ccc(O[C@H]2CC[C@H](c3nnc(C)n3-c3ccc(Cl)cc3)CC2)cn1` [Example 64], 0.324 nM. Take `C[S@@+]([O-])Cc1nnc(C2CCC(Oc3ccccn3)CC2)n1-c1ccc(Cl)cc1` (single isomer, unassigned) [Example 39, trans-(+)-2-((4-(4-(4-Chlorophenyl)-5-((methylsulfinyl)methyl)-4H-1,2,4-triazol-3-yl)cyclohexyl)oxy)pyridine]: the Ki was 31.6 nM. Turning to `COCc1nnc([C@H]2CC[C@H](Oc3cnc(C)cn3)CC2)n1-c1ccc(Cl)cc1` [Example 72, trans[4-[4-(4-Chlorophenyl)-5-(methoxymethyl)-1,2,4-triazol-3-yl]cyclohexyl]oxy-5-methylpyrazine], the Ki was 2.95 nM.

`COCc1nnc([C@H]2CC[C@H](Oc3cnccn3)CC2)n1-c1ccc(Cl)cc1` [Example 69, trans[4-[4-(4-Chlorophenyl)-5-(methoxymethyl)-1,2,4-triazol-3-yl]cyclohexyl]oxypyrazine]: the Ki is 2.45 nM. Consider `COc1nnc([C@H]2CC[C@H](Oc3ccccn3)CC2)n1-c1ccc(Cl)cc1` [Example 49, trans((4-(4-(4-Chlorophenyl)-5-methoxy-4H-1,2,4-triazol-3-yl)cyclohexyl)oxy)pyridine], for which the Ki is 0.646 nM.

On to `FC(F)(F)c1nnc([C@H]2CC[C@H](Oc3ccccn3)CC2)n1-c1ccc(Cl)cc1` [Example 33, trans((4-(4-(4-Chlorophenyl)-5-(trifluoromethyl)-4H-1,2,4-triazol-3-yl)cyclohexyl)oxy)pyridine], for which the Ki is 2.14 nM.

(Values after patent publication US20230202990A1, “CYCLOHEXYL SUBSTITUTED TRIAZOLES” (Hoffmann-La Roche Inc., priority 2020, published 2023).)
